Measurements: patent publication US8580301B2, “Psychostimulant containing pharmaceutical composition” (PEJO Iserlohn Heilmittel und Diaet GmbH & Co. KG, priority 2004, dated 2013)
Structures can show the parent of a compound that is named as a salt.

How the values were obtained:
[1] = Solubility of methylphenidate hydrochloride in aqueous media / Ph. Eur. buffer solutions; type: physicochemical
[2] = Stability in alkaline solution; type: physicochemical

COC(=O)C(c1ccccc1)C1CCCCN1 (stereo not drawn) [methylphenidate hydrochloride]
solubility of the maximum daily dose of 60 mg in buffer solutions of the European Pharmacopoeia ([1]; 60 mg in 250 ml hydrochloric acid pH 1.2, or 250 ml potassium dihydrogen phosphate buffer pH 4.6 or 6.8): dissolves easily | water solubility ([1]; aqueous media): extremely water soluble | stability in alkaline solution [2]: hydrolysis occurs
